Patent US20050214387A1, “Low-dose potassium supplementation for the prevention and treatment of hypertension” (priority 2002, published 2005)
Where “and” joins values, the source holds several entries; their conditions need not be identical. Equal values may be shown once.

Legend:
[1] = tested on: apparently healthy volunteers; test: Double-blind placebo-controlled low-dose potassium trial: blood pressure (MAP, SBP, DBP); assay type: in vivo, human; conditions: for DBP Week 3 − Week 0 mean difference / MAP Week 3 − Week 0 mean difference / SBP Week 3 − Week 0 mean difference: change Week 0 to 3, n = 30, mean ± SEM; for DBP Week 6 − Week 0 mean difference / MAP Week 6 − Week 0 mean difference / SBP Week 6 − Week 0 mean difference: change Week 0 to 6, n = 30, mean ± SEM
Procedure: A double-blind, placebo controlled trial on 59 volunteers, randomly assigned to receive 24 mmol/d of slow release potassium chloride (n=30) or a placebo (n=29) was conducted. Measures of BP, anthropometric characteristics and urine analysis for electrolytes were recorded during a one-week baseline period. Supplementation was for six weeks during which BP and changes in weight were assessed and a second 24-hour urine collection made. The primary outcome was the change in mean arterial pressure (MAP). Systolic (SBP) and diastolic (DBP) blood pressure were secondary outcomes.
The study took the form of a randomized double-blind, placebo-controlled trial with the aim of testing the effect of potassium supplementation on BP. […] The study consisted of a baseline period of one week during which blood pressure and body weight were measured at the beginning and end, and a 24-hour urine sample was collected to estimate electrolyte intake. During a six weeks intervention phase, BP and body weight were measured at three-week intervals, and a second 24-hour urine sample was collected during the final week. Potassium chloride was administered as one slow release tablet containing 8 mmol of potassium chloride (Slow-K Tablets 600 mg kindly supplied by Alliance Pharmaceuticals Ltd, Avonbridge House, Chippenham, Wiltshire SN15 2BB, UK) three times a day with meals. The placebo contained sorbitol and fructose.
Each BP measurement was performed following current recommendations (Beevers et al., ABC of hypertension, 4th Ed., London, BMJ Publishing Group, 2000). BP was assessed at the same time of day (within 30 minutes) for every appointment to avoid the influence of circadian variations in BP (Id.), at approximately the same heart rate, and by the same observer using the same instruments throughout the study for each measurement. The subjects were instructed not to smoke, eat or drink during the 30 minutes before each appointment They were also given verbal and written notice to avoid exercising 30 minutes before the appointment, to come to the appointment with an empty bladder and to maintain strictly their usual habits on the day of the appointment (coffee, tea, meals consumed at the same time of the day). BP measurements were performed after the subjects had rested quietly for at least five minutes in the seated position. Two different cuffs (35 cm and 42 cm) were used depending on the arm circumference. At each visit at least three readings for systolic (SBP) and diastolic (DBP) BP and heart rate were taken at two-minute intervals in the left arm using a semi-automated device employing the oscillometric method (Omron M5-I, Omron Healthcare Europe B.V., Hoofddorp, The Netherlands). The first readings of each assessment were ignored to avoid results affected by the defense reaction (Beevers et al., ABC of hypertension, 4th Ed., London, BMJ Publishing Group, 2000) and the last two readings were averaged and recorded. The readings were thereafter confirmed after a two-minute interval with a Hawksley random zero sphygmomanometer (Hawksley and Sons, Lancing, Sussex, UK) because automatic devices may be unsuitable for some individuals for which there is no obvious reason (Id.).
SBP was measured as the point of appearance of the Korotkoff sounds (Phase I) and DBP was measured as the point of complete disappearance of the Korotkoff sounds (Phase V) according to the guidelines given by the British Hypertension Society (Id). All recordings from the semi-automated device agreed well with the random zero sphygmomanometer. Subjects with either SBP≧140 mm Hg or DBP level≧90 mm Hg were considered to be hypertensive.
Mean Arterial Pressure (MAP) was computed as MAP=(2 DBP+SBP)/3 (Vander et al., Human Physiology, The Mechanism of Body Function, 8th Ed., McGraw-Hill, New York, 2000, pp. 407-16 and 626-34, and Wilson et al., Hypertension, 1999, 34, 181-6). […]

[2] = tested on: apparently healthy volunteers; test: Low-dose potassium trial: compliance and side effects; assay type: in vivo, human; conditions: one person receiving potassium
Procedure: The patients and the investigator were unaware of the type of supplement being given, other than that it was a nutrient. The placebo and potassium chloride pills were provided in identical containers. The adherence of the volunteers to the treatment was assessed at each visit by questioning, and by counting the pills returned.
The baseline blood pressure used for the statistical analysis was the average of the measurements taken during the first week period. For Interval level variables (e.g. BP), differences between groups were tested using the Two-Sample t test while differences within each group were tested with the Paired t test. For Ordinal level variables (e.g. compliance) these tests were performed using the Mann-Whitney Test and the Wilcoxon Signed Rank Test for comparisons between and within the two groups respectively. The Chi-Squared Test was used to assess the significance of differences between the groups for Nominal level variables (e.g. gender).

hypertensive patients = conditions: 18 hypertensive patients, daily supplement of 48 mmol; cited from earlier work
[3] = 24 mmol/d slow release potassium chloride, n = 30, mean ± SEM
[4] = Week 0 to 6, listed as potassium
[5] = after six weeks of supplementation, versus placebo
[6] = within potassium group, listed as potassium
[7] = within potassium group, change Week 3 to 6, n = 30, mean ± SEM

Structure (SMILES): [Cl-].[K+] [Potassium, potassium chloride]
- DBP Week 3 [1, 3]: 72.95 ± 2.08 mm Hg
- DBP Week 6 [1, 3]: 71.47 ± 1.90 mm Hg
- MAP Week 3 [1, 3]: 87.67 ± 2.20 mm Hg
- MAP Week 6 [1, 3]: 84.97 ± 2.06 mm Hg
- SBP Week 3 [1, 3]: 117.17 ± 2.71 mm Hg
- SBP Week 6 [1, 3]: 111.93 ± 2.52 mm Hg
- DBP Potassium − placebo Mean Difference (95% CI) ([1]; Week 0 to 3): −4.11 (−6.09, −2.13)^4 mm Hg
- MAP Potassium − placebo Mean Difference (95% CI) ([1]; Week 0 to 3): −3.34 (−5.22, −1.47)^3 mm Hg
- SBP Potassium − placebo Mean Difference (95% CI) ([1]; Week 0 to 3): −1.28 (−4.21, 1.65) mm Hg
- DBP Potassium − placebo Mean Difference (95% CI) ([1]; Week 0 to 6): −6.46 (−8.74, −4.19)^4 mm Hg
- MAP Potassium − placebo Mean Difference (95% CI) ([1]; Week 0 to 6): −7.01 (−9.12, −4.89)^4 mm Hg
- SBP Potassium − placebo Mean Difference (95% CI) ([1]; Week 0 to 6): −7.60 (−10.46, −4.73)^4 mm Hg
- DBP Potassium − placebo Mean Difference (95% CI) [1, 4]: marked and significant decrease
- MAP Potassium − placebo Mean Difference (95% CI) [1, 4]: marked and significant decrease
- SBP Potassium − placebo Mean Difference (95% CI) [1, 4]: marked and significant decrease
- DBP Potassium − placebo Mean Difference (95% CI) ([1]; Week 3 to 6): −2.35 (−4.70, −0.00)^5 mm Hg
- MAP Potassium − placebo Mean Difference (95% CI) ([1]; Week 3 to 6): −3.66 (−5.84, −1.49)^3 mm Hg
- SBP Potassium − placebo Mean Difference (95% CI) ([1]; Week 3 to 6): −6.32 (−8.84, −3.79)^4 mm Hg
- reduction in DBP [1, 5]: 6.46 mm Hg
- reduction in MAP [1, 5]: 7.01 mm Hg
- reduction in SBP [1, 5]: 7.60 mm Hg
- DBP Week 3 − Week 0 mean difference ([1]; within potassium group): −2.53 ± 0.73^6 mm Hg and −2.53 ± 0.73 mm Hg
- MAP Week 3 − Week 0 mean difference ([1]; within potassium group): −2.21 ± 0.72^3 mm Hg and −2.21 ± 0.72^2 mm Hg
- SBP Week 3 − Week 0 mean difference ([1]; within potassium group): −0.98 ± 1.20 mm Hg
- DBP Week 3 − Week 0 mean difference [1, 6]: significant decrease
- MAP Week 3 − Week 0 mean difference [1, 6]: significant decrease
- SBP Week 3 − Week 0 mean difference [1, 6]: not significantly reduced
- DBP Week 6 − Week 0 mean difference ([1]; within potassium group): −4.02 ± 0.87^5 mm Hg and −4.02 ± 0.87 mm Hg
- MAP Week 6 − Week 0 mean difference ([1]; within potassium group): −4.91 ± 0.80^5 mm Hg and −4.91 ± 0.79 mm Hg
- SBP Week 6 − Week 0 mean difference ([1]; within potassium group): −6.22 ± 1.07^5 mm Hg and −6.22 ± 1.10 mm Hg
- DBP Week 6 − Week 0 mean difference [1, 6]: decreased significantly
- MAP Week 6 − Week 0 mean difference [1, 6]: decreased significantly
- SBP Week 6 − Week 0 mean difference [1, 6]: decreased significantly
- DBP Week 6 − Week 3 mean difference [1, 7]: −1.48 ± 0.98 mm Hg and −1.48 ± 0.97 mm Hg
- MAP Week 6 − Week 3 mean difference [1, 7]: −2.70 ± 0.91^4 mm Hg and −2.70 ± 0.91 mm Hg
- SBP Week 6 − Week 3 mean difference [1, 7]: −5.23 ± 1.03^5 mm Hg and −5.23 ± 1.00 mm Hg
- SBP Week 6 − Week 3 mean difference ([1]; within potassium group, change Week 3 to 6, n = 30, mean ± SEM, listed as potassium): decreased significantly
- side effects reported [2]: increase in appetite
- effect on BP (hypertensive patients): lower BP
